Data on seven compounds can be found in paper PMC3433420 (PLoS ONE, 2012).

One experiment addresses SH2D2A SH2 domain (Homo sapiens, UniProt Q9NP31). Put plainly: FP saturation binding assay.
Another experiment has as its target T1, SH2D1A SH2 domain (Homo sapiens, UniProt O60880).
T1 sequence (O60880 6-104 limits assumed): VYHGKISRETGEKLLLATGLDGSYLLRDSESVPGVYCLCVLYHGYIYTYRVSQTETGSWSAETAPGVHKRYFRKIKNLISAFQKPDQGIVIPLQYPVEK
Put plainly: FP saturation binding assay. The note with it: for KD range of recruitment of SH2D1A (SHD1A [sic]): FP saturation assay.

Experiment [1] has as its target T2, PIK3R3-NC tandem SH2 domains (Homo sapiens, UniProt Q92569).
T2 construct: the tandem protein was included in our analysis with all internal amino acids linking the domains; 6X His; thioredoxin; made in house; host or cells: E. coli BL21(DE3)pLysS
Briefly: FP saturation binding assay. The following applies: Protein PIK3R3-NC; FP saturation binding, high-confidence ErbB interactions; mean over replicate hits. The procedure:
(§1) (See Figure 1A) Rhodamine-labeled peptides were dissolved in assay buffer (20 mM HEPES, 100 mM KCl, 0.1% Tween-20, 5 mM DTT, pH 7.8), diluted to a concentration of 20 nM, and plated into black 384-well plates (Corning, Corning, NY) at 5 µL/well using a Perkin Elmer EP3 pipetting workstation (V&P Scientific, Inc., San Diego, CA). SH2, PTB, and thioredoxin control proteins were plated into the first column of 2 mL 96-well plates (Corning) at a concentration of 20 µM and serially diluted 1∶2 into freezing buffer (300 mM NaCl, 50 mM Na2PO4, pH 8, 20% glycerol v/v) eleven times using a Tecan Freedom EVO 100 workstation (Tecan, Männedorf, Switzerland). For the interaction assay, 5 µL of each of the twelve protein concentrations was added to the peptide-containing 384-well plates via the EP3 resulting in a protein dilution range of 0.002–10 µM and a final volume of 10 µL; peptide concentration was fixed at 10 nM. Peptide/protein samples were incubated for 20 minutes at room temperature in the dark and fluorescence polarization (FP) was measured in an Analyst GT multimode reader (Molecular Devices, Sunnyvale, CA) with excitation and emission wavelengths of 530 nm and 555 nm, respectively. Experimental values were output as millipolarization (mP) units and imported into MATLAB (The MathWorks, Inc., Natick, MA) in which equation (1) was used to determine dissociation constants (KDs) for each protein/peptide pairing by least squares nonlinear regression. [drawing 1] (1)
(§2) FP was described by the following equation: P=Iparallel-IperpendicularIparallel+Iperpendicular, where “P” denotes polarization, and “I” denotes the fluorescent intensity relative to the plane of incident light. Experimental values were output as millipolarization (mP) units and imported into MATLAB where the following equation was used to determine dissociation constants (KDs) for each protein/peptide pairing by least squares nonlinear regression:
(§3) Pobs=Pmax∙ProteinKD+Protein [picture] (1)
Peptides were initially tested for systematic plate effects across protein dilutions and nonspecific binding to thioredoxin by linear regression analysis and any effects were regressed out. The median baseline control polarization value for each plate was then subtracted from each data point to make each binding curve intersect at zero. Plates with excessive variation in baseline control polarizations on both a global and run-specific manner (Dixon’s Q test, p < 0.05) were excluded from further analysis. Outliers in each binding curve were identified and removed using an iterative procedure as follows. The residuals for each fit were used to calculate a global standard deviation of the residuals (GSDR) for each concentration of SH2 domain over all interactions, and individual data points with residuals < or > two GSDR from the global mean residual were flagged as outliers. The outlier with the largest residual from each interaction was removed and nonlinear regression was again performed. This procedure was repeated if additional outliers were identified for an interaction, discarding the interaction if the number of outliers exceeded three. […] In order to further control our false positive rate against hidden confounding variables producing binding artifacts, we sought to determine whether there was a significant relationship between the strength of an interaction and its technical replication rate at our stringent significance and filtering thresholds. We performed logistic regression on the proportion of successful replicates for each interaction query against KD for all interactions (Figure S15A). […] This is related to the observation that the majority of interactions detected by FP are tight (Figure S15B). With this logit model, we assigned a probability to each peptide-protein interaction in our data by using a binomial proportions test to compare the observed versus the expected replication rate at the particular KD of that interaction (Table S4). […]

Experiment [2] concerns the target T3, PLCG1-NC tandem SH2 domains (Homo sapiens, UniProt P19174).
T3 construct: the tandem protein was included in our analysis with all internal amino acids linking the domains; 6X His; thioredoxin; made in house; host or cells: E. coli BL21(DE3)pLysS
T3 sequence (P19174 550-756 limits assumed): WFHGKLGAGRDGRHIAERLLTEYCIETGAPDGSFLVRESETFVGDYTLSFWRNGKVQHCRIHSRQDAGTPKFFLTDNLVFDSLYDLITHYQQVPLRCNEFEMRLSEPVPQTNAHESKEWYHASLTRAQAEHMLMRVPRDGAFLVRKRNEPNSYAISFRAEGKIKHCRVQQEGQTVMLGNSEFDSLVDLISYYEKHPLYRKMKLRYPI
Briefly: FP saturation binding assay. The note with it: Protein PLCG1-NC; FP saturation binding, high-confidence ErbB interactions; mean over replicate hits. The procedure:
as §1, with “Peptide/protein samples were incubated for 20 minutes at room temperature in the dark and fluorescence polarization (FP) was measured in an Analyst GT multimode reader (Molecular Devices, Sunnyvale, CA) with excitation and emission wavelengths of 530 nm and 555 nm, respectively.” left out
as §2, §3
Peptides were initially tested for systematic plate effects across protein dilutions and nonspecific binding to thioredoxin by linear regression analysis and any effects were regressed out. The median baseline control polarization value for each plate was then subtracted from each data point to make each binding curve intersect at zero. Plates with excessive variation in baseline control polarizations on both a global and run-specific manner (Dixon’s Q test, p < 0.05) were excluded from further analysis. Outliers in each binding curve were identified and removed using an iterative procedure as follows. The residuals for each fit were used to calculate a global standard deviation of the residuals (GSDR) for each concentration of SH2 domain over all interactions, and individual data points with residuals < or > two GSDR from the global mean residual were flagged as outliers. The outlier with the largest residual from each interaction was removed and nonlinear regression was again performed. This procedure was repeated if additional outliers were identified for an interaction, discarding the interaction if the number of outliers exceeded three. […] In order to further control our false positive rate against hidden confounding variables producing binding artifacts, we sought to determine whether there was a significant relationship between the strength of an interaction and its technical replication rate at our stringent significance and filtering thresholds. We performed logistic regression on the proportion of successful replicates for each interaction query against KD for all interactions (Figure S15A). […] “High-confidence” FP interactions are defined as those having 1 - P(Observed Replication Rate | Expectation) > 0.5 and that have replicated at least twice across independent FP runs. […] The compiled FP data were organized into heatmaps generated by MATLAB and relative binding strength (µM). Peptides without at least one positive hit were classified as “no interaction” if there was no homologous sequence (i.e. identical at the +1 to +4 positions relative to the phosphotyrosine) that produced a positive interaction within the ErbB receptor family.

The target of experiment [3] is PIK3R2-NC tandem SH2 domains (Homo sapiens, UniProt O00459). Briefly: FP saturation binding assay.
The next experiment addresses T4, PIK3R3-C SH2 domain (Homo sapiens, UniProt Q92569).
T4 construct: thioredoxin; made in house; host or cells: E. coli BL21(DE3)pLysS
Put plainly: biochemical. The format is binding. The following applies: Protein PIK3R3-C; FP saturation binding, high-confidence ErbB interactions; mean over replicate hits.

A further experiment has as its target T5, RASA1-N SH2 domain (Homo sapiens, UniProt P20936).
T5 sequence (P20936 181-272 limits assumed): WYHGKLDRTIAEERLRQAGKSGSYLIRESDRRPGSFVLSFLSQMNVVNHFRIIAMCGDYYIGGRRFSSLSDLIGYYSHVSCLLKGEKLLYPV
Briefly: FP saturation binding assay.

A further experiment addresses T6, SH2D1B SH2 domain (Homo sapiens, UniProt O14796).
T6 sequence (O14796 5-101 limits assumed): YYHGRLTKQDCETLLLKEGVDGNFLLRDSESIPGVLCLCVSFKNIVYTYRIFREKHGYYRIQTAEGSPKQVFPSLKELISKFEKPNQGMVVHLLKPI
Briefly: FP saturation binding assay. The note with it: FP saturation assay.

Residues, ends and D or L forms follow the SMILES beside them.

Chain of SH2D2A SH2 domain (Q9NP31 95-186 limits assumed): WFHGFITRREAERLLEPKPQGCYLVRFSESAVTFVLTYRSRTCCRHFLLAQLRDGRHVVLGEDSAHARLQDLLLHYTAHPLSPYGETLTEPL
Chain of PIK3R2-NC tandem SH2 domains (O00459 330-716 limits assumed): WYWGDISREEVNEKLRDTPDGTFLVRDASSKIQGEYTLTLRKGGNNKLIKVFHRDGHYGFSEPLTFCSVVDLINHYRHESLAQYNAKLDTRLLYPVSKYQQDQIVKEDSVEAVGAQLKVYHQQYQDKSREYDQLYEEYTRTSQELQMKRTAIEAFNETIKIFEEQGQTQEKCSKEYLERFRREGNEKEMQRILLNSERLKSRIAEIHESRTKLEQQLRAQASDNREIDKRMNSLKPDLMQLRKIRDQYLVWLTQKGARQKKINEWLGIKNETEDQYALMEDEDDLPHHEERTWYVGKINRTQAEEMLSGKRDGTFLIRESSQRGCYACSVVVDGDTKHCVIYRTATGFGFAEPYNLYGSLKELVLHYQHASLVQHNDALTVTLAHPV

As to `CC[C@H](C)[C@H](NC(=O)[C@H](CCCNC(=N)N)NC(=O)[C@H](Cc1c[nH]cn1)NC(=O)[C@@H](N)CC(C)C)C(=O)N[C@@H](Cc1ccc(OP(=O)(O)O)cc1)C(=O)N[C@H](C(=O)N[C@@H](Cc1c[nH]cn1)C(=O)N[C@@H](CCC(N)=O)C(=O)N[C@@H](CO)C(=O)N[C@@H](CC(=O)O)C(=O)N[C@H](C(=O)N[C@@H](Cc1c[nH]c2ccccc12)C(=O)N[C@@H](CC(=O)O)C(=O)O)C(C)C)[C@@H](C)O` [ErbB1 891 13-mer] (HELM PEPTIDE1{L.H.R.I.[O=C([C@H](Cc1ccc(OP(=O)(O)O)cc1)N[*:1])[*:2]].T.H.Q.S.D.V.W.D}$$$$V2.0), the Kd on SH2D2A SH2 domain stood at 13.4 µM.
In the case of `CC[C@H](C)[C@H](NC(=O)CNC(=O)[C@H](CC(=O)O)NC(=O)[C@H](Cc1ccc(OP(=O)(O)O)cc1)NC(=O)[C@@H]1CCCN1C(=O)[C@H](CCCCN)NC(=O)[C@H](CO)NC(=O)CN)C(=O)N1CCC[C@H]1C(=O)N[C@@H](C)C(=O)N[C@@H](CO)C(=O)N[C@@H](CCC(=O)O)C(=O)N[C@@H](CC(=O)O)C(=O)O` [ErbB1 915 13-mer] (HELM PEPTIDE1{G.S.K.P.[O=C([C@H](Cc1ccc(OP(=O)(O)O)cc1)N[*:1])[*:2]].D.G.I.P.A.S.E.D}$$$$V2.0), the Kd at SH2D1A SH2 domain is 14.5 µM; at SH2D2A SH2 domain, 4.77 µM.
Turning to `CC[C@H](C)[C@H](NC(=O)[C@H](Cc1ccc(OP(=O)(O)O)cc1)NC(=O)[C@H](CCC(=O)O)NC(=O)[C@@H]1CCCN1C(=O)[C@@H](NC(=O)[C@@H]1CCCN1)C(C)C)C(=O)N[C@@H](CC(N)=O)C(=O)N[C@@H](CCC(N)=O)C(=O)N[C@@H](CO)C(=O)N[C@H](C(=O)N1CCC[C@H]1C(=O)N[C@@H](CCCCN)C(=O)N[C@@H](CC(=O)O)C(=O)O)C(C)C` [ErbB1 1092 13-mer], the Kd in experiment [1] was found to be 8.64 µM; in experiment [2] it was 7.58 µM; in experiment [3], 11.2 µM; on SH2D2A SH2 domain it was 10.9 µM.
`NCCCC[C@H](NC(=O)[C@@H]1CCCN1C(=O)[C@H](Cc1ccccc1)NC(=O)[C@H](Cc1ccccc1)NC(=O)[C@H](CC(=O)O)NC(=O)[C@H](CCC(N)=O)NC(=O)[C@H](CCC(N)=O)NC(=O)[C@H](Cc1ccc(OP(=O)(O)O)cc1)NC(=O)[C@H](CC(=O)O)NC(=O)[C@@H]1CCCN1C(=O)[C@H](CC(N)=O)NC(=O)[C@@H](N)CC(=O)O)C(=O)N[C@@H](CC(=O)O)C(=O)O` [ErbB1 1172 13-mer] (HELM PEPTIDE1{D.N.P.D.[O=C([C@H](Cc1ccc(OP(=O)(O)O)cc1)N[*:1])[*:2]].Q.Q.D.F.F.P.K.D}$$$$V2.0): the results for the Kd (on PIK3R3-C SH2 domain; in experiment [2]; on RASA1-N SH2 domain) were 12.6 µM, 7.79 µM and 4.17 µM, respectively.
For `CSCC[C@H](NC(=O)[C@H](Cc1ccc(OP(=O)(O)O)cc1)NC(=O)[C@H](CCC(=O)O)NC(=O)[C@H](Cc1ccc(O)cc1)NC(=O)[C@H](CCC(=O)O)NC(=O)[C@@H](N)CCC(=O)O)C(=O)N[C@@H](CC(N)=O)C(=O)N[C@@H](CCCNC(=N)N)C(=O)N[C@@H](CCCNC(=N)N)C(=O)N[C@@H](CCCNC(=N)N)C(=O)N[C@@H](CCCNC(=N)N)C(=O)N[C@@H](Cc1c[nH]cn1)C(=O)N[C@@H](CC(=O)O)C(=O)O` [ErbB3 1199 13-mer] (HELM PEPTIDE1{E.E.Y.E.[O=C([C@H](Cc1ccc(OP(=O)(O)O)cc1)N[*:1])[*:2]].M.N.R.R.R.R.H.D}$$$$V2.0), the Kd at SH2D2A SH2 domain was found to be 13.9 µM.
Consider FGTVpYKGIWVPEd [ErbB4 pY733], for which, on SH2D1A SH2 domain, the “KD range of recruitment of SH2D1A (SHD1A [sic])” value is “in the nM KD range”. Also, the “KD range of recruitment of SH2D1B” value at SH2D1B SH2 domain was “in the nM KD range”.
Turning to LDEApYVMAGVGS [ErbB2 pY772], the “KD range of recruitment of SH2D1A (SHD1A [sic])” value at SH2D1A SH2 domain was “in the nM KD range”. For the same compound, the “KD range of recruitment of SH2D1B” value at SH2D1B SH2 domain is “in the nM KD range”.
